Test results taken from patent publication US8298798B2, “Production of C5-C8 alcohols using evolved enzymes and metabolically engineered microorganisms” (The Regents of the University of California, priority 2008, dated 2012).

Biological target: F381L/V461A KIVD (Lactococcus lactis, UniProt A0A0B8QZ66, form not given/V461A)
Assay: coupled enzymatic assay of KIVD decarboxylation activity
Format: biochemical
Conditions: substrate of V461A/F381L KIVD, 30° C., pH 6.8
Text: Protein Expression and Purification. Both gene fragments encoding wild type and F381L/V461A KIVD were amplified from plasmid pZE_LeuABCDKA6 using primers hiskivd_tevfwd and hiskivd_bamrev. After digestion with BamHI, the gene fragments were inserted into expression plasmid pQE9 (Qiagen) to yield pQE_hiskivd_wt and pQE_hiskivd_FL. The ADH6 gene fragment was amplified from yeast genomic DNA using primers hisadh_tevfwd and hisadh_bamrev, digested with BamHI and inserted into pQE9 to generate pQE_hisadh6. Similarly, genes encoding G462D and G462D/S139G LeuA were amplified from plasmid pZE_LeuABCDKA6 using primers hisleua_tevfwd and hisleua_bamrev. After digestion with BamHI, the PCR products were ligated into pQE9 to create pQE_hisleua_GD and pQE_hisleua_GS. […]
Enzymatic Assay of KIVD. […] Inc. Protein concentration was determined by measuring UV absorbance at 280 nm. The decarboxylation activity of KIVD was measured at 30° C. using a coupled enzymatic assay method. […] The reactions were started by adding 2 μl KIVD (final concentration: for KIV, 20 nM wt KIVD, 200 nM F381L/V461A KIVD; for KHV, 50 nM both), and the consumption of NADPH was monitored at 340 nm (extinction coefficient, 6.22 mM^−1 cm^−1). Kinetic parameters (kcat and Km) were determined by fitting initial velocity data to the Michaelis-Menten equation using Origin.

| SMILES | Km [mM] |
| --- | --- |
| CC(C)C(=O)C(=O)O [2-Ketoisovalerate] | 7.7 |
| CC[C@H](C)CC(=O)C(=O)O [(S)-2-keto-4-methylhexanoate] | 0.22 |
